Experimental data reported in ChEMBL document CHEMBL1821669, “Cyclic depsipeptides, grassypeptolides D and E and Ibu-epidemethoxylyngbyastatin 3, from a Red Sea Leptolyngbya cyanobacterium” (J Nat Prod, 2011).
Numbered stars: 1 amine (or outer) side, 2 acyl side, 3 side chain; on linkers, the order of the positions; unused ones are H or OH. Square brackets hold non-standard residues; d marks the D form. Peptide text beside a SMILES is read from it. X2 = CCC[C@@H](N[*:1])[C@H](C)C(=O)O[C@H](C(=O)[*:2])[C@@H](C)CC; X3 = CC[C@H](C)[C@H](OC(=O)[C@@H](C)[C@@H](CC)N[*:1])C(=O)[*:2]; dAbuψ(thiazoline)Cys = CC[C@@H](N[*:1])C1=N[C@H](C(=O)[*:2])CS1; X4 = CN([C@@H](Cc1ccccc1)C1=N[C@H](C(=O)[*:2])CS1)[*:1]; dβ3hAla(2R-Me) = C[C@@H](N[*:1])[C@@H](C)C(=O)[*:2]; X1 = C[C@H](N[*:1])C(=O)C(C)(C)C(=O)[*:2]; d(aThr) = C[C@@H](O)[C@@H](N)C(=O)O; NMeF = CN[C@@H](Cc1ccccc1)C(=O)O; PhLac = O=C(O)[C@@H](O)Cc1ccccc1; NMeL = CN[C@@H](CC(C)C)C(=O)O; dNMeL = CN[C@H](CC(C)C)C(=O)O; NMeV = CN[C@H](C(=O)O)C(C)C; NMeA = CN[C@@H](C)C(=O)O

What was measured:
[1] = Cytotoxicity against mouse Neuro2a cells after 48 hrs by MTT assay; format: functional, cell-based; conditions: N2a
HeLa = test: Cytotoxicity against human HeLa cells after 48 hrs by MTT assay; format: functional, cell-based

| SMILES | IC50 [1] [nM] | IC50 (HeLa) [nM] |
| --- | --- | --- |
| CCC[C@H]1NC(=O)[C@H](C)N(C)C(=O)C(C)(C)C(=O)[C@H](C)NC(=O)[C@H](Cc2ccccc2)N(C)C(=O)[C@H](C(C)C)N(C)C(=O)CNC(=O)[C@H](CC(C)C)N(C)C(=O)CNC(=O)[C@H]([C@@H](C)CC)OC(=O)[C@H]1C (cyclo(G[NMeL]G[NMeV][NMeF][X1][NMeA][X2])) | > 10000 |  |
| CC[C@H](C)[C@@H]1OC(=O)[C@@H](C)[C@@H](CC)NC(=O)[C@H](C)N(C)C(=O)C(C)(C)C(=O)[C@H](C)NC(=O)[C@H](Cc2ccccc2)N(C)C(=O)[C@H](C(C)C)N(C)C(=O)CNC(=O)[C@H](CC(C)C)N(C)C(=O)CNC1=O [DOLASTATIN 12] (cyclo(G[NMeL]G[NMeV][NMeF][X1][NMeA][X3])) | > 1000 |  |
| CC[C@H]1NC(=O)[C@@H]2CSC(=N2)[C@H](Cc2ccccc2)N(C)C(=O)[C@@H]2CCCN2C(=O)[C@H](C(C)C)N(C)C(=O)[C@H](Cc2ccccc2)OC(=O)[C@H](C)[C@@H](C)NC(=O)[C@@H]([C@@H](C)O)NC(=O)[C@@H](CC(C)C)N(C)C(=O)[C@@H]2CSC1=N2 [GRASSYPEPTOLIDE C] (cyclo([NMeV]P[X4][dAbuψ(thiazoline)Cys][dNMeL][d(aThr)][dβ3hAla(2R-Me)][PhLac])) |  | 45 |
| CC[C@H]1NC(=O)[C@@]2(C)CSC(=N2)[C@H](Cc2ccccc2)N(C)C(=O)[C@@H]2CCCN2C(=O)[C@H](C(C)C)N(C)C(=O)[C@H](Cc2ccccc2)OC(=O)[C@H](C)[C@@H](C)NC(=O)[C@@H]([C@@H](C)O)NC(=O)[C@@H](CC(C)C)N(C)C(=O)[C@@H]2CSC1=N2 [GRASSYPEPTOLIDE D] | 599 | 335 |
| CC[C@H]1NC(=O)[C@@]2(C)CSC(=N2)[C@H](Cc2ccccc2)N(C)C(=O)[C@@H]2CCCN2C(=O)[C@H](C(C)C)N(C)C(=O)[C@H](Cc2ccccc2)OC(=O)[C@H](C)[C@@H](C)NC(=O)[C@H]([C@@H](C)O)NC(=O)[C@H](CC(C)C)N(C)C(=O)[C@@H]2CSC1=N2 [GRASSYPEPTOLIDE E] | 407 | 192 |
